Assay results: patent US11518764B2, “Substituted heteroaryls as inhibitors of the BCL6 BTB domain protein-protein interaction” (Ontario Institute for Cancer Research (OICR), priority 2018, dated 2022)
Like-named read-outs stand apart in the source and are kept apart here.

What was measured:
BCL6 BTB domain = BCL6 BTB domain (Homo sapiens (Human), UniProt P41182); experiment: Surface plasmon resonance (SPR) assay; type: binding; details: BCL6 BTB domain captured on SA chip, single cycle kinetics
[1] = test system: BCL6 reporter construct (3xBCL6-TK-Luc) in SuDHL4 cells; experiment: Cell-based luciferase assay
Method in brief: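 SuDHL4 cells stably carrying a 3×BCL6-site TK-promoter firefly luciferase reporter, seeded at 15,000 cells/well, were dosed over a 10-point range (top 10 uM) and grown two days at 37 °C, 5% CO2. Luminescence then read after adding neolite reagent at room temperature.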

Karpas422 cells = experiment: Tumor cell growth inhibition assay; type: cell-based
Method in brief: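 Karpas422 cells (2,000/well) in Alpha-MEM with 10% FBS dosed across 10 concentrations (top 5 uM) and grown six days at 37° C., 5% CO2. Viability read as ATPlite luminescence.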

[2] = Homo sapiens, SU-DHL-4, 48 h, read-out: Luciferase-Assay EC50, uM), SuDHL4-3xBCL6-TK-Luc cells, two days, high dose 10 uM
[3] = Homo sapiens, KARPAS-422, 144 h, read-out: Tumor Growth Inhibition in Karpas-422 (IC50, uM), Karpas422 cells, six days, ATPlite

SMILES	Kd (BCL6 BTB domain) [nM]	EC50 [1, 2] [µM]	IC50 (Karpas422 cells; [3]) [µM]	IC50 (Karpas422 cells; read-out: Tumor Growth Inhibition in Karpas-422 (IC50), Karpas422 cells, six days, ATPlite) [µM]	EC50 ([1]; SuDHL4-3xBCL6-TK-Luc cells, two days, high dose 10 uM, read-out: Luciferase-Assay EC50) [µM]	IC50 (Karpas422 cells; Karpas422 cells, six days, ATPlite, read-out: Tumor Growth Inhibition in Karpas-422 (IC50)) [µM]
CN(C)c1cc(NC(=O)Cn2cc(-c3cc(Cl)c(O)c(C(N)=O)c3)c3c(=O)n(C)cnc32)c(Cl)c(F)n1 [Compound I-421]	14.7	0.154	0.154			
C[C@@H]1CN(c2cc(NC(=O)Cn3cc(-c4cc(C(N)=O)c(O)c(Cl)c4F)c4c(=O)n(C)cnc43)c(Cl)cn2)C[C@H](C)O1 [Compound I-170]	369	2.14		10		
C[C@H]1CN(CC(CO)CO)CCN1c1cc(NC(=O)Cn2cc(-c3cc(C(N)=O)c(O)c(F)c3F)c3c(=O)n(C)cnc32)c(Cl)c(F)n1 [Compound I-463, (S)-5-(7-(2-((3-chloro-2-fluoro-6-(4-(3-hydroxy-2-(hydroxymethyl)propyl)-2-methylpiperazin-1-yl)pyridin-4-yl)amino)-2-oxoethyl)-3-methyl-4-oxo-4,7-dihydro-3H-pyrrolo[2,3-d]pyrimidin-5-yl)-3,4-difluoro-2-hydroxybenzamide]	8.56	3.53	1.28			
COc1c(O)c(C(N)=O)cc(-c2cn(CC(=O)Nc3cc(N4CCOCC4)ncc3F)c3ncn(C)c(=O)c23)c1F [Compound I-197]	218	4.01	10			
Cn1cnc2c(c(-c3cc(Cl)c(O)c(C(N)=O)c3)cn2CC(=O)Nc2cc(N3CCC4(CCOCC4)CC3)ncc2Cl)c1=O [Compound I-77]	27	0.279	0.115			
COCCN1CCN(c2cc(NC(=O)Cn3cc(-c4cc(F)c(O)c(C(N)=O)c4)c4c(=O)n(C)cnc43)c(Cl)c(F)n2)[C@@H](C)C1 [Compound I-448]	3.42	0.0483	0.0446			
CN1CCOC2CN(c3cc(NC(=O)Cn4cc(-c5cc(Cl)c(O)c(C(N)=O)c5)c5c(=O)n(C)cnc54)c(Cl)cn3)CC21 (stereo not drawn) [Compound I-329]	13.4	0.345	0.173			
CC(C)[C@@H]1CN(c2cc(NC(=O)Cn3cc(-c4cc(Cl)c(O)c(C(N)=O)c4)c4c(=O)n(C)cnc43)c(Cl)cn2)CCO1 [Compound I-205]	43.6	0.248	0.457			
C[C@H]1CN(C)CCN1c1cc(NC(=O)Cn2cc(-c3cc(Cl)c(O)c(C(N)=O)c3)c3c(=O)n(C)c(C(F)(F)F)nc32)c(Cl)c(F)n1 [Compound I-368]	83.5	0.369	0.407			
C[C@@H]1COC[C@@H](C)N1c1cc(NC(=O)Cn2cc(-c3cc(Cl)c(O)c(C(N)=O)c3)c3c(=O)n(C)cnc32)c(Cl)cn1 [Compound I-259]	38.5	0.214	0.652			
Cn1cnc2c(c(-c3cc(C(N)=O)c(O)c(F)c3F)cn2CC(=O)Nc2cc(N3CCOCC3)ncc2F)c1=O [Compound I-404]	106	4.06	10			
Cn1cnc2c(c(-c3cc(Cl)c(O)c(C(N)=O)c3)cn2CC(=O)Nc2cc(N3CC4CC4C3)ncc2Cl)c1=O (stereo not drawn) [Compound I-155]	32.6	0.923	1.55			
COC[C@H]1COCCN1c1cc(NC(=O)Cn2cc(-c3cc(Cl)c(O)c(C(N)=O)c3)c3c(=O)[nH]cnc32)c(Cl)cn1 [Compound I-164]	7.76	0.601	0.251			
C[C@@H](C1CC1)N1CCN(c2cc(NC(=O)Cn3cc(-c4cc(C(N)=O)c(O)c(F)c4F)c4c(=O)n(C)cnc43)c(Cl)c(F)n2)[C@@H](C)C1 [Compound I-454]	13.5	0.306	0.244			
CN(C)c1cc(NC(=O)Cn2cc(-c3cc(C(N)=O)c(O)c(F)c3F)c3c(=O)n(C)cnc32)c(Cl)c(F)n1 [Compound I-420]	16.3	0.429	0.383			
Cc1nc2c(s1)CN(c1cc(NC(=O)Cn3cc(-c4cc(Cl)c(O)c(C(N)=O)c4)c4c(=O)n(C)cnc43)c(Cl)cn1)C2 [Compound I-108]	30	0.203	0.408			
CN(C)c1cc(NC(=O)Cn2cc(-c3cc(F)c(O)c(C(N)=O)c3)c3c(=O)n(C)cnc32)c(Cl)cn1 [Compound I-288]	9.47	0.181	0.128			
CN(C)c1cc(NC(=O)Cn2cc(-c3cc(Cl)c(O)c(C(N)=O)c3)c3c(=O)n(C)c(NCc4ccc(F)cc4)nc32)c(Cl)cn1 [Compound I-129]	44	2.62	0.866			
C[C@H]1CN(C)CCN1c1cc(NC(=O)Cn2cc(-c3cc(F)c(O)c(C(N)=O)c3)c3c(=O)n(CC#Cc4cnn(C)c4)cnc32)c(Cl)cn1 [Compound I-480]	137	2.21	0.704			

SMILES	Kd (BCL6 BTB domain) [nM]	EC50 [1, 2] [µM]	IC50 (Karpas422 cells; [3]) [µM]	IC50 (Karpas422 cells; read-out: Tumor Growth Inhibition in Karpas-422 (IC50), Karpas422 cells, six days, ATPlite) [µM]	EC50 ([1]; SuDHL4-3xBCL6-TK-Luc cells, two days, high dose 10 uM, read-out: Luciferase-Assay EC50) [µM]	IC50 (Karpas422 cells; Karpas422 cells, six days, ATPlite, read-out: Tumor Growth Inhibition in Karpas-422 (IC50)) [µM]
C[C@H]1COCCN1c1cc(NC(=O)Cn2cc(-c3cc(C(N)=O)c(O)c(F)c3F)c3c(=O)n(CC#Cc4cnn(C)c4)cnc32)c(Cl)cn1 [Compound I-321]	9.19	0.405	0.437			
NC(=O)c1cc(-c2cn(CC(=O)Nc3cc(N4CC5CCC(C4)O5)ncc3Cl)c3nc[nH]c(=O)c23)cc(Cl)c1O [Compound I-242]	5.01	0.483	0.312			
Cc1nc2c(c(-c3cc(Cl)c(O)c(C(N)=O)c3)cn2CC(=O)Nc2cc(N3C[C@@H](C)O[C@@H](C)C3)ncc2Cl)c(=O)[nH]1 [Compound I-85]	11	0.076	0.064			
C[C@H]1CN(Cc2ccccc2)CCN1c1cc(NC(=O)Cn2cc(-c3cc(C(N)=O)c(O)c(F)c3F)c3c(=O)n(C)cnc32)c(Cl)cn1 [Compound I-314]	117	0.901	6.7			
Cn1cnc2c(c(-c3cc(C(N)=O)c(O)cn3)cn2CC(=O)Nc2cc(N3CCOCC3)ncc2Cl)c1=O [Compound I-131, 2-(7-(2-((5-chloro-2-morpholinopyridin-4-yl)amino)-2-oxoethyl)-3-methyl-4-oxo-4,7-dihydro-3H-pyrrolo[2,3-d]pyrimidin-5-yl)-5-hydroxyisonicotinamide]	8000				> 10	> 10
Cc1nc2cc(Cl)c(NC(=O)Cn3cc(-c4cc(C(N)=O)c(O)c(F)c4F)c4c(=O)n(C)cnc43)cc2o1 [Compound I-226]	468	5.12	1.89			
C[C@H]1CN(C2CCC2)CCN1c1cc(NC(=O)Cn2cc(-c3cc(Cl)c(O)c(C(N)=O)c3)c3c(=O)n(C)cnc32)c(Cl)cn1 [Compound I-358]	22.7	0.256	0.341			
COc1c(O)c(C(N)=O)cc(-c2cn(CC(=O)Nc3cc(N4CCOC[C@@H]4C)nc(F)c3Cl)c3ncn(C)c(=O)c23)c1F [Compound I-411]	46.2	0.771	1.12			
C[C@H]1CN(C)CCN1c1cc(NC(=O)Cn2cc(-c3cc(F)c(O)c(C(N)=O)c3)c3c(=O)n(CCC(=O)c4cnn(C)c4)cnc32)c(Cl)c(F)n1 [Compound I-430, (S)-5-(7-(2-((3-chloro-6-(2,4-dimethylpiperazin-1-yl)-2-fluoropyridin-4-yl)amino)-2-oxoethyl)-3-(3-(1-methyl-1H-pyrazol-4-yl)-3-oxopropyl)-4-oxo-4,7-dihydro-3H-pyrrolo[2,3-d]pyrimidin-5-yl)-3-fluoro-2-hydroxybenzamide]	23.2	0.622	0.38			
Cn1cnc2c(c(-c3cc(Cl)c(O)c(C(N)=O)c3)cn2CC(=O)Nc2cc(N3Cc4ccncc4C3)ncc2Cl)c1=O [Compound I-152]	20.7	0.168	0.134			
C[C@H]1COCCN1c1cc(NC(=O)Cn2cc(-c3cc(C(N)=O)c(O)c(F)c3F)c3c(=O)n(C)cnc32)c(F)cn1 [Compound I-397]	98.3	3.31	2.54			
Cc1nc2c(c(-c3cc(Cl)c(O)c(C(N)=O)c3)cn2CC(=O)Nc2cc(N3CCN(C4COC4)C[C@@H]3C)nc(F)c2Cl)c(=O)n1C [Compound I-434]	5.45	0.0381	0.05			
CN1CCC2CN(c3cc(NC(=O)Cn4cc(-c5cc(F)c(O)c(C(N)=O)c5)c5c(=O)n(C)cnc54)c(Cl)cn3)CC21 (stereo not drawn) [Compound I-276]	33.1	1.1	0.355			
CN1CCOC2CN(c3cc(NC(=O)Cn4cc(-c5cc(C(N)=O)c(O)c(F)c5F)c5c(=O)n(C)cnc54)c(Cl)cn3)CC21 (stereo not drawn) [Compound I-325]	40.8	2	1.13			
Cn1cnc2c(c(-c3cc(Cl)c(O)c(C(N)=O)c3)cn2CC(=O)Nc2cc3cnn(C)c3cc2Cl)c1=O [Compound I-181]	617	33	10			
CN1CCOC2CN(c3cc(NC(=O)Cn4cc(-c5cc(Cl)c(O)c(C(N)=O)c5)c5c(=O)n(C)c(C(F)(F)F)nc54)c(Cl)cn3)CC21 (stereo not drawn) [Compound I-395]	48.3	0.168	0.669			
CCN1CCN(c2cc(NC(=O)Cn3cc(-c4cc(Cl)c(O)c(C(N)=O)c4)c4c(=O)n(C)c(C(F)(F)F)nc43)c(Cl)cn2)[C@@H](C)C1 [Compound I-376]	73.4	0.385	0.366			
C[C@H](C1CC1)N1CCN(c2cc(NC(=O)Cn3cc(-c4cc(C(N)=O)c(O)c(F)c4F)c4c(=O)n(C)cnc43)c(Cl)cn2)[C@@H](C)C1 [Compound I-425]	44.7	0.629	0.624			
